# Laboratory results as given in publication PMC11887451, “Leveraging Immunogenic Cell Death to Enhance the Immune Response against Malignant Pleural Mesothelioma Tumors” (Journal of the American Chemical Society, 2025).
# Test system: AB12 cells
# Experiment: Annexin V/PI assay (necrosis), flow cytometry
# Type: cell-based, mouse
# Settings: AB12, 5 × IC50 (72 h), 100 min
# Protocol: centrifugation of the cells (300 × g, 5 min), 5 ml of fresh RPMI was introduced, and the cells were seeded at a density of 5 x 10^5 cells per well into Cellstar 6-well plates (Greiner Bio-One) (1 ml per well). J774 macrophages (70-80% confluence in a T75 flask) were detached by scraping, centrifuged (300 × g, 5 min). The medium was substituted with 1 ml of DMEM containing CellTracker Green CMFDA (1 μM) and the J774 macrophages were stained at 37°C for 30 minutes. Following centrifugation of the J774 macrophages (300 × g, 5 min), 5 ml of fresh DMEM was introduced, and the macrophages were seeded into a 100 cm2 petri dish (SPL Life Sciences, Korea). After 24 h, the media in AB12 cells was replaced with 1 ml of fresh RPMI containing compounds of interest at equipotent concentration of 5 × IC50 and incubated for 100 minutes. After removing the drug-containing media, the cells were trypsinized (0.5 ml), neutralized with 1 ml of RPMI, centrifuged (300 × g, 5 min) and counted. From each sample, 2 × 10^5 AB12 cells were seeded into Cellstar 6-well plates (Greiner Bio-One) (1 ml per well).
# 2 × 10^5 J774 macrophages were detached from a petri dish by scraping and added to AB12 cells into 6-well plates. AB12 cells and J774 macrophages were co-incubated for 16 h at 37°C and 5% CO2, detached by scraping, centrifuged (300 × g, 5 min), and the pellets were resuspended in PBS for immediate analysis using a CytoFLEX Flow Cytometer (Beckman Coulter, USA). The percentage of phagocytosis was determined by calculating the number of double-positive macrophages (Q2) over the total number of macrophages (Q2 + Q3). Dot plots […]
# analysis of the flow cytometry data. […]
# concentrations for 100 min at 37 °C. […] Cell death was evaluated by flow cytometry using a CytoFLEX Flow Cytometer equipped with a 488 nm laser and a 638 nm laser (Beckman Coulter, Brea, CA, USA). The cells were excited by the 488 nm laser, and fluorescence emissions were detected at 525/40 nm for FITC (Annexin V) and at 610/20 nm for ECD (PI).
# The percentage of necrosis was determined by calculating the sum of cells in Q1 and Q2. […]
structure (smiles),measurement,value
F[P-](F)(F)(F)(F)F.c1cc[c]2c(c1)Nc1cccc[n+]1[Au-]21[S]C(=[N+]2CCCCCC2)[S]1 (stereo not shown) [5G],necrosis level (Q1 + Q2),6%–8%
